# Data: patent publication US12251373B2, “Compounds and methods of treating retinal degeneration” (CASE WESTERN RESERVE UNIVERSITY, priority 2017, dated 2025)
# How the values were obtained:
# rod opsin = molecular target: T1, rod opsin (Bos taurus, UniProt P02699); assay: Raman spectroscopy of rod opsin crystal soaked with compound; assay type: binding, bovine; conditions: Raman difference spectrum, FIG. 4f
# T1 construct: ROS membranes were isolated from bovine retinas under dim red light; from tissue; host or cells: bovine retina rod outer segment (ROS) membranes, bleached with hydroxylamine
# T1 sequence (P02699 whole entry): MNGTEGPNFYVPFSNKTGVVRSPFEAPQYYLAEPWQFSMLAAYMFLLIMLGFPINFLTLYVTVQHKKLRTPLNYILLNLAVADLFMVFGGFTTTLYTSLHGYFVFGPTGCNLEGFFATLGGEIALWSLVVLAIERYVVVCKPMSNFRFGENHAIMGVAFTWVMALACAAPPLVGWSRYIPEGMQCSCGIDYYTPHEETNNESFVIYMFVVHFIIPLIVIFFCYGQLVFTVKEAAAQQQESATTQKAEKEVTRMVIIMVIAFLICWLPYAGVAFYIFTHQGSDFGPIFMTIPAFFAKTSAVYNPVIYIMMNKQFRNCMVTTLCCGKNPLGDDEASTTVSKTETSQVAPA
# Description: Bleached ROS membranes bearing opsin were solubilized with either 20 mM BTP, pH 7.5, or 50 mM MES, pH 6.4, together with 130 mM NaCl, 1 mM MgCl2, 10% sucrose, and 1% n-octyl-β-D-glucopyranoside (OG) for 1 h at 4° C. Insoluble debris was removed by centrifugation at 16,000 g for 5 min at 4° C. Crystallization screens were performed by the sparse matrix crystallization method based upon previously published crystallization conditions for rhodopsin and opsin. Each hanging drop was prepared by mixing equal volumes of solubilized opsin and a reservoir solution containing 3.0-3.6 M ammonium sulfate in 0.05-0.1 M sodium acetate buffer, pH 5.2-5.6. Crystals appeared within 2-5 days at 4° C. and were analyzed directly by Raman spectroscopy.
# Here, we used Raman microscopy to test if YC-001 binds rod opsin in a single crystal. A rod opsin crystal was transferred into 4.5 μL of fresh reservoir solution on a siliconized glass coverslip and transferred into a hanging drop crystallization tray where the well contained 1 mL of the same solution. An 80 mW, 647.1 nm Kr^+ laser beam (Innova 70 C, Coherent, Palo Alto, CA, USA) was focused on the rod opsin crystal with a 20× objective. The Raman spectrum of the rod opsin crystal was accumulated over 100×1 s. […]
# ovine COX-1 = molecular target: T2, ovine COX-1 (Ovis aries, UniProt P05979); assay: COX-1 activity assay; assay type: biochemical; conditions: up to 80 μM of YC-001
# T2 construct: purchased Abcam
# T2 sequence (P05979 25-600): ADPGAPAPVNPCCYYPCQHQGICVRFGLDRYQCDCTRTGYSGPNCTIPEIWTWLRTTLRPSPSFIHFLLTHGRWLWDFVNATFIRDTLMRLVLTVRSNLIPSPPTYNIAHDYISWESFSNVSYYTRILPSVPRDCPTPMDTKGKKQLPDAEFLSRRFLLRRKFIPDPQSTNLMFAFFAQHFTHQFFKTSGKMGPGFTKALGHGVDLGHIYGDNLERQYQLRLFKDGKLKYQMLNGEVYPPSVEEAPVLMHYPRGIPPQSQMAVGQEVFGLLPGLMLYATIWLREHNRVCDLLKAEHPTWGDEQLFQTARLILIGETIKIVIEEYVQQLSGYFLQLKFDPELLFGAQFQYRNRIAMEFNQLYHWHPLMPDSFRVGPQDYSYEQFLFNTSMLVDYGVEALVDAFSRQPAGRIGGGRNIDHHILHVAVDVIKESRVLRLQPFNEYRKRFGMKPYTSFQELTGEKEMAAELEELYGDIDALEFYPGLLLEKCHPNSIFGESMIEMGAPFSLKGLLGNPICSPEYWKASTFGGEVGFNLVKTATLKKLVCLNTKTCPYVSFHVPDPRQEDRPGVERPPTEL
# Description: The effect of the compound YC-001 on cyclooxygenase 1 (COX-1) activity was evaluated using the COX1 Inhibitor Screening Kit (Abcam, Cambridge, MA, USA) according to the manufacture's protocol. Briefly, the assay is based on the fluorometric detection of Prostaglandin G2, the intermediate product generated by the COX-1 enzyme. COX reaction mix included ovine COX-1, COX probe and COX cofactor and was prepared in a 96-well plate. YC-001 working solutions were dissolved in DMSO, and then mixed with COX Reaction Mix to the final concentrations (80, 40, 20, 10, 5, 2.5, 1.25, 0.625, 0.312, 0.156, 0.078 and 0.039 μM). Equivalent volume of DMSO was used as vehicle control and SC560 was used as a positive control. All controls and samples were measured in triplicate. Then Arachidonic Acid was added into each well to initiate all the reactions at the same time. The fluorescence was measured at Ex/Em=535/587 nm in a kinetic mode for 15 min at 25° C. Five time points were chosen in the linear range of the plot and the corresponding values for the fluorescence were used to calculate the slope of the linear regression equation. Relative COX-1 activity was calculated as Equation 5: […]
# human rod opsin C110Y = molecular target: T3, human rod opsin C110Y (Homo sapiens, UniProt P08100, C110Y); assay: Cell surface immunostain for rhodopsin mutants in NIH3T3 cells; assay type: cell-based; conditions: YC-001 treatment
# T3 construct: expressed in transfected cells; host or cells: NIH3T3, transfected with pcDNA3.1-hOpsin mutant
# Description: (§1) Human rhodopsin cDNA was placed into the pcDNA3.1(+) vector (pcDNA3.1-hOpsin). Site directed mutagenesis was performed following the QuickChange II site-directed mutagenesis kit (Agilent Technologies Inc.). Primers for the following mutations were as follows: […]
# (§2) DNA vectors with rhodopsin mutations were confirmed by Sanger sequencing. After NIH3T3 cells were transfected with pcDNA3.1-hOpsin or its mutants for 24 h, these cells were resuspended and seeded into a 96-well plate with an optic bottom (Corning). […] Each condition was repeated in three wells. The treated plate was covered in tin foil and incubated at 37° C. with 5% CO2 for 24 h. Cells were then immunostained with Alexa […] 488-conjugated B6-30 anti-rhodopsin antibody. Cells were not exposed to detergents so that cell membranes were kept intact and only rhodopsin on the cell surface was immunostained. Alexa 488 fluorescence was imaged by the ImageExpress (Molecular Devices) high-content imager with a 20× objective. Medicinal Chemistry of YC-001
# human rod opsin D190N = molecular target: T4, human rod opsin D190N (Homo sapiens, UniProt P08100, D190N); assay: as above; assay type: cell-based; conditions: YC-001 treatment
# T4 construct: expressed in transfected cells; host or cells: NIH3T3, transfected with pcDNA3.1-hOpsin mutant
# Description: as §1, §2
# human rod opsin G106R = molecular target: T5, human rod opsin G106R (Homo sapiens, UniProt P08100, G106R); assay: as above; assay type: cell-based; conditions: YC-001 treatment
# T5 construct: expressed in transfected cells; host or cells: NIH3T3, transfected with pcDNA3.1-hOpsin mutant
# Description: as §1, §2
# human rod opsin P267L = molecular target: T6, human rod opsin P267L (Homo sapiens, UniProt P08100, P267L); assay: as above; assay type: cell-based; conditions: YC-001 treatment
# T6 construct: expressed in transfected cells; host or cells: NIH3T3, transfected with pcDNA3.1-hOpsin mutant
# Description: as §1, §2
smiles,measurement,setting,value
O=C1OCC(c2ccc(Cl)s2)=C1c1cccs1 [YC-001],mode of binding to rod opsin,rod opsin,non-covalent binding
same,COX-1 enzymatic activity,ovine COX-1,didn't see changes
same,cell surface staining of mutant opsin,human rod opsin C110Y,not effective
same,cell surface staining of mutant opsin,human rod opsin D190N,increased significantly
same,cell surface staining of mutant opsin,human rod opsin G106R,increased significantly
same,cell surface staining of mutant opsin,human rod opsin P267L,increased significantly
